Values joined by “and” are separate entries in the source; they are usually repeats but may differ in a detail not shown here. Equal values may be shown once. Positions of bridges follow the written chain, without caps; N, C: chain ends. Residues, ends and D or L forms follow the SMILES beside them.
How the values were obtained:
MDA-MB231 = format: cell-based, human; conditions: 3 h
Summary of the method: (§1)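 Cytotoxicity of N-Ac-CHAVC-NH2 and the control peptide N-Ac-CHGVC-NH2 was assessed by MTT reduction in human endothelial, fibroblast and cancer cell lines at concentrations up to 100 μM. Proliferation was measured separately by ^3H-thymidine incorporation over the same concentration range.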

IAFp2 = format: cell-based, human; conditions: 3 h
Summary of the method: as §1

HUVEC = format: cell-based, human; conditions: 3 h
Summary of the method: as §1

PC-3 = format: cell-based, human; conditions: 3 h
Summary of the method: as §1

HMVEC = format: cell-based, human; conditions: 3 h
Summary of the method: as §1

WI-38 = format: cell-based, human; conditions: 3 h
Summary of the method: as §1

human skin = test: Human skin permeability, Franz Cell apparatus
Experimental: Another cell adhesion assay involves evaluating the effect of a modulating agent on permeability of adherent epithelial and/or endothelial cell layers. For example, the effect on permeability of human skin may be evaluated. Such skin may be derived from a natural source or may be synthetic. Human abdominal skin for use in such assays may generally be obtained from humans at autopsy within 24 hours of death. Briefly, a cyclic peptide and a test marker (e.g., the fluorescent markers Oregon Green™ and Rhodamine Green™ Dextran) may be dissolved in a sterile buffer, and the ability of the marker to penetrate through the skin and into a receptor fluid may be measured using a Franz Cell apparatus (Franz, Curr. Prob. Dermatol. 7:58-68, 1978; Franz, J. Invest. Dermatol. 64:190-195, 1975). In general, a modulating agent that enhances the permeability of human skin results in a statistically significant increase in the amount of marker in the receptor compartment after 6-48 hours in the presence of 500 μg/mL modulating agent. This assay evaluates the effect of a modulating agent on E-cadherin mediated cell adhesion.
Abdominal skin from humans at autopsy within 24 hours of death was used in these assays. The effect of N—Ac-CHAVC-NH2 (SEQ ID NO:10) and N—Ac-CHGVC-NH2 (SEQ ID NO:11), used at a concentration of 500 μg/ml or 2.5 mg/ml, on the penetration of two fluorescent markers, Oregon Green 488 (charge −1, MW 386 daltons) and Rhodamine Green 3000 Dextran (no charge, MW 3000 daltons) through human skin was then evaluated utilizing a Franz Cell apparatus (Franz, Curr. Prob. Dermatol. 7:58-68, 1978; Franz, J. Invest. Dermatol. 64:190-195, 1975). The peptides and markers were dissolved in sterile phosphate buffer, pH 7.2, and phosphate buffer was used as the receptor fluid. 150 μl of solution containing 0.2 mg Oregon Green and 1.0 mg Rhodamine Green was used to evaluate 500 μg/ml peptide; 200 μl of solution containing 0.05 mg Oregon Green and 1.250 mg Rhodamine Green was used to evaluate 2.5 mg/ml peptide. The solution was placed on top of the epidermal side of the skin, and the penetration of the markers through the skin was assessed using a fluorescent spectrophotometric method (in a Perkin Elmer 650-105 Fluorescence Spectrophotometer, and comparing the reading to a standard curve) at 6, 12, 24, 36, and 48 hours after the start of the experiment. The fluorescent units were converted to a concentration unit of microgram/5 ml (volume of the receiver compartment) using a standard curve and regression analysis equations. The curve was linear for the concentrations tested for both markers (r^2=1 for OrG and 0.997 for RhG). For each peptide and marker combination, the experiment was performed in triplicate.

[1] = Cytotoxicity, MTT assay, MDA-MB231; format: cell-based, human; conditions: human, MDA-MB231 breast cancer cell line; MTT assay; read-out: MDA-MB231 Cytotox (IC50)
Summary of the method: as §1

[2] = 500 μg/ml Peptide, t = 6 hours, Mean
[3] = 500 μg/ml Peptide, t = 6 hours, single replicates, listed as Sample#1
[4] = 500 μg/ml Peptide, t = 12 hours, Mean
[5] = 500 μg/ml Peptide, t = 12 hours, single replicates, listed as Sample#1
[6] = 500 μg/ml Peptide, t = 24 hours, Mean
[7] = 500 μg/ml Peptide, t = 24 hours, single replicates, listed as Sample#1
[8] = 500 μg/ml Peptide, t = 36 hours, Mean
[9] = 500 μg/ml Peptide, t = 36 hours, single replicates, listed as Sample#1
[10] = 500 μg/ml Peptide, t = 48 hours, Mean
[11] = 500 μg/ml Peptide, t = 48 hours, single replicates, listed as Sample#1
[12] = 2.5 mg/ml Peptide, t = 6 hours, Mean
[13] = 2.5 mg/ml Peptide, t = 6 hours, single replicates, listed as Sample#1
[14] = 2.5 mg/ml Peptide, t = 12 hours, Mean
[15] = 2.5 mg/ml Peptide, t = 12 hours, single replicates, listed as Sample#1
[16] = 2.5 mg/ml Peptide, t = 24 hours, Mean
[17] = 2.5 mg/ml Peptide, t = 24 hours, single replicates, listed as Sample#1
[18] = 2.5 mg/ml Peptide, t = 36 hours, Mean
[19] = 2.5 mg/ml Peptide, t = 36 hours, single replicates, listed as Sample#1
[20] = 2.5 mg/ml Peptide, t = 48 hours, Mean
[21] = 2.5 mg/ml Peptide, t = 48 hours, single replicates, listed as Sample#1

With `CC[C@H](C)[C@@H]1NC(=O)[C@H](CC(=O)O)NC(=O)[C@H](C(C)C)NC(=O)[C@H](C)NC(=O)[C@H](Cc2c[nH]cn2)NC(=O)[C@H](C)NC(=O)[C@@H](NC(C)=O)CSSC[C@@H](C(N)=O)NC1=O` (Ac-CAHAVDIC-NH2; disulfide 1-8) the IC50 (MDA-MB231) was greater than 100 µM, the IC50 (IAFp2) was greater than 100 µM and the IC50 (HUVEC) was greater than 100 µM. For the same compound, the IC50 (PC-3) was greater than 100 µM, the IC50 (HMVEC) was greater than 100 µM and the IC50 (WI-38) was greater than 100 µM.
`CC(=O)N[C@H]1CSSC[C@@H](C(N)=O)NC(=O)[C@H](CC(=O)O)NC(=O)[C@H](C(C)C)NC(=O)[C@H](C)NC(=O)[C@H](Cc2c[nH]cn2)NC(=O)[C@H](C)NC1=O` [N—Ac—CAHAVDC—NH2, N-Ac-Cys-Ala-His-Ala-Val-Asp-Cys-NH2] (Ac-CAHAVDC-NH2; disulfide 1-7) showed an IC50 (MDA-MB231) greater than 100 µM, an IC50 (IAFp2) greater than 100 µM and an IC50 (HUVEC) greater than 100 µM. The IC50 (PC-3) was greater than 100 µM, the IC50 (HMVEC) was greater than 100 µM and the IC50 (WI-38) was greater than 100 µM.
In the case of `CC(=O)N[C@H]1CSSC[C@@H](C(N)=O)NC(=O)[C@H](C(C)C)NC(=O)[C@H](C)NC(=O)[C@H](Cc2c[nH]cn2)NC1=O` [N—Ac—CHAVC—NH2, N-Ac-Cys-His-Ala-Val-Cys-NH2], the “penetration of Oregon Green through the skin, compared to control peptide” value (human skin; 500 μg/ml) is reported as “slightly increased the penetration of Oregon Green through the skin”, the “penetration of Rhodamine Green through the skin, compared to control peptide” value (human skin; 500 μg/ml) is reported as “significantly increased” and the “Percutaneous absorption concentration for Dextran Rhodamine Green 3000” value (human skin; [2]) is reported as 0.8 mg/5ml. The “Percutaneous absorption concentration for Oregon Green 488” value (human skin; [2]) was 0.084 mg/5ml, the “Percutaneous absorption concentration for Dextran Rhodamine Green 3000” value (human skin; [3]) was 0.4 mg/5ml and 0.8 mg/5ml and 1.2 mg/5ml and the “Percutaneous absorption concentration for Oregon Green 488” value (human skin; [3]) was 0.028 mg/5ml and 0.167 mg/5ml and 0.058 mg/5ml. For the same compound, the “Percutaneous absorption concentration for Dextran Rhodamine Green 3000” value (human skin; [4]) was 3.52 mg/5ml, the “Percutaneous absorption concentration for Oregon Green 488” value (human skin; [4]) was 0.225 mg/5ml and the “Percutaneous absorption concentration for Dextran Rhodamine Green 3000” value (human skin; [5]) was 3.0 mg/5ml and 2.0 mg/5ml and 5.556 mg/5ml. The “Percutaneous absorption concentration for Oregon Green 488” value (human skin; [5]) was 0.096 mg/5ml and 0.322 mg/5ml and 0.352 mg/5ml, the “Percutaneous absorption concentration for Dextran Rhodamine Green 3000” value (human skin; [6]) was 11.15 mg/5ml and the “Percutaneous absorption concentration for Oregon Green 488” value (human skin; [6]) was 0.780 mg/5ml. The “Percutaneous absorption concentration for Dextran Rhodamine Green 3000” value (human skin; [7]) was 16.174 mg/5ml and 4.074 mg/5ml and 13.158 mg/5ml, the “Percutaneous absorption concentration for Oregon Green 488” value (human skin; [7]) was 0.470 mg/5ml and 1.096 mg/5ml and 0.773 mg/5ml and the “Percutaneous absorption concentration for Dextran Rhodamine Green 3000” value (human skin; [8]) was 14.72 mg/5ml. The “Percutaneous absorption concentration for Oregon Green 488” value (human skin; [8]) was 1.00 mg/5ml, the “Percutaneous absorption concentration for Dextran Rhodamine Green 3000” value (human skin; [9]) was 21.044 mg/5ml and 5.556 mg/5ml and 17.565 mg/5ml and the “Percutaneous absorption concentration for Oregon Green 488” value (human skin; [9]) was 0.544 mg/5ml and 1.56 mg/5ml and 0.902 mg/5ml. For the same compound, the “Percutaneous absorption concentration for Dextran Rhodamine Green 3000” value (human skin; [10]) was 20.02 mg/5ml, the “Percutaneous absorption concentration for Oregon Green 488” value (human skin; [10]) was 1.120 mg/5ml and the “Percutaneous absorption concentration for Dextran Rhodamine Green 3000” value (human skin; [11]) was 25.747 mg/5ml and 6.481 mg/5ml and 27.826 mg/5ml. For the same compound, the “Percutaneous absorption concentration for Oregon Green 488” value (human skin; [11]) was 0.665 mg/5ml and 1.725 mg/5ml and 0.971 mg/5ml, the “penetration of Oregon Green through the skin, compared to control peptide” value (human skin; 2.5 mg/ml) was “increased the penetration of Oregon Green through the skin” and the “penetration of Rhodamine Green through the skin, compared to control peptide” value (human skin; 2.5 mg/ml) was “significantly increased”. For the same compound, the “Percutaneous absorption concentration for Dextran Rhodamine Green 3000” value (human skin; [12]) was 12.66 mg/5ml, the “Percutaneous absorption concentration for Oregon Green 488” value (human skin; [12]) was 0.14 mg/5ml and the “Percutaneous absorption concentration for Dextran Rhodamine Green 3000” value (human skin; [13]) was 24.52 mg/5ml and 2.4 mg/5ml and 11.05 mg/5ml. For the same compound, the “Percutaneous absorption concentration for Oregon Green 488” value (human skin; [13]) was 0.14 mg/5ml and 0.11 mg/5ml and 0.16 mg/5ml, the “Percutaneous absorption concentration for Dextran Rhodamine Green 3000” value (human skin; [14]) was 31.47 mg/5ml and the “Percutaneous absorption concentration for Oregon Green 488” value (human skin; [14]) was 0.40 mg/5ml. For the same compound, the “Percutaneous absorption concentration for Dextran Rhodamine Green 3000” value (human skin; [15]) was 45.35 mg/5ml and 25.22 mg/5ml and 23.83 mg/5ml, the “Percutaneous absorption concentration for Oregon Green 488” value (human skin; [15]) was 0.44 mg/5ml and 0.32 mg/5ml and 0.45 mg/5ml and the “Percutaneous absorption concentration for Dextran Rhodamine Green 3000” value (human skin; [16]) was 48.78 mg/5ml. For the same compound, the “Percutaneous absorption concentration for Oregon Green 488” value (human skin; [16]) was 0.54 mg/5ml, the “Percutaneous absorption concentration for Dextran Rhodamine Green 3000” value (human skin; [17]) was 66.28 mg/5ml and 35.22 mg/5ml and 44.85 mg/5ml and the “Percutaneous absorption concentration for Oregon Green 488” value (human skin; [17]) was 0.67 mg/5ml and 0.33 mg/5ml and 0.63 mg/5ml. The “Percutaneous absorption concentration for Dextran Rhodamine Green 3000” value (human skin; [18]) was 71.28 mg/5ml, the “Percutaneous absorption concentration for Oregon Green 488” value (human skin; [18]) was 0.88 mg/5ml and the “Percutaneous absorption concentration for Dextran Rhodamine Green 3000” value (human skin; [19]) was 120.0 mg/5ml and 42.36 mg/5ml and 51.50 mg/5ml. For the same compound, the “Percutaneous absorption concentration for Oregon Green 488” value (human skin; [19]) was 0.76 mg/5ml and 0.88 mg/5ml and 0.99 mg/5ml, the “Percutaneous absorption concentration for Dextran Rhodamine Green 3000” value (human skin; [20]) was 133.56 mg/5ml and the “Percutaneous absorption concentration for Oregon Green 488” value (human skin; [20]) was 0.82 mg/5ml. The “Percutaneous absorption concentration for Dextran Rhodamine Green 3000” value (human skin; [21]) was 146.79 mg/5ml and 47.00 mg/5ml and 60.1 mg/5ml, the “Percutaneous absorption concentration for Oregon Green 488” value (human skin; [21]) was 0.83 mg/5ml and 0.56 mg/5ml and 1.06 mg/5ml and the IC50 [1] was greater than 100 µM.
